Source: patent US20230167073A1 (Teijin Pharma Limited, priority 2020, published 2023)

The compounds below were run against T1, Human TRPC6 (Homo sapiens, UniProt Q9Y210) (assay: Evaluation of TRPC6 channel inhibitory activity (1), FLIPR Calcium 5 Assay Kit, OAG stimulation (Compound Nos. 1-1293)). Conditions: not given.
T1 construct: expressed in transfected cells
T1 sequence (Q9Y210 1-931): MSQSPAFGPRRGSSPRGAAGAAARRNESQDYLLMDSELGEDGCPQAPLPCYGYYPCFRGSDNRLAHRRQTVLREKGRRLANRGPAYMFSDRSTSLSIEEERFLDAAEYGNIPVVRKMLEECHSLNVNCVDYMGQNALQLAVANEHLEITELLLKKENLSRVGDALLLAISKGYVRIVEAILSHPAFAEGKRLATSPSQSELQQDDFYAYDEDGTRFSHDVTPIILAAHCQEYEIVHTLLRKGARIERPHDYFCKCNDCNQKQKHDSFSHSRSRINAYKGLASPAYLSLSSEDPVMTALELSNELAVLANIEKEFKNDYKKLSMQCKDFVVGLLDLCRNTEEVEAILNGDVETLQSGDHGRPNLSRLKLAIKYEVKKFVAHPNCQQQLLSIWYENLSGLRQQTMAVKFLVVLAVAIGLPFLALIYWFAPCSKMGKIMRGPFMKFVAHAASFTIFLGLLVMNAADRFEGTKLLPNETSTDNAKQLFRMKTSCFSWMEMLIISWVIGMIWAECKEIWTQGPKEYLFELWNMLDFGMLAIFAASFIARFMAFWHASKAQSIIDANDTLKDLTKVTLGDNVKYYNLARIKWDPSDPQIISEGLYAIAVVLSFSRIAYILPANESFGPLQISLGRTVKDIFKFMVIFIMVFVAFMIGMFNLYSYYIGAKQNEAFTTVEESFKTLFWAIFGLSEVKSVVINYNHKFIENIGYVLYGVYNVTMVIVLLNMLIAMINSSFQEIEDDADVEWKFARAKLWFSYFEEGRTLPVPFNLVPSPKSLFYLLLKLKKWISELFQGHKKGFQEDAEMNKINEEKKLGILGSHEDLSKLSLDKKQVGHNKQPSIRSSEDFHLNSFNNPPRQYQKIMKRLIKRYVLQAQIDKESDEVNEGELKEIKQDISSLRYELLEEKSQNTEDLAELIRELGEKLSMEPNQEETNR
Type: cell-based
Summary of the method: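 Stable human TRPC6 line; fluorescent Ca2+ dye loading, then 20 min compound exposure before 30 μM OAG trigger. Peak-minus-baseline signal converted to % inhibition against untreated and unstimulated wells; potency given as pIC50 band.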

`Cc1cc(Oc2cc(C#N)ccc2-c2ncc(CN)cn2)cc(N2C3CCC2CC3)n1` [compound 826, 4-[5-(aminomethyl)pyrimidin-2-yl]-3-[2-(7-azabicyclo[2.2.1]heptan-7-yl)-6-methylpyridin-4-yl]oxybenzonitrile] and `Cc1cc(Oc2cc(C#N)ccc2-c2ncc(CCN)cn2)cc(N2C3CCC2CC3)n1` [compound 827, 4-[5-(2-aminoethyl)pyrimidin-2-yl]-3-[2-(7-azabicyclo[2.2.1]heptan-7-yl)-6-methylpyridin-4-yl]oxybenzonitrile] cannot be ordered by IC50: less than 10 nM for the first, less than 10 nM for the second.

Same assay, conditions: Human TRPC6 stably-expressing cells, OAG 30 μM, FLIPR Calcium 5 Assay Kit; read-out: Inhibitory activity (pIC50 class) (converted)

`N#Cc1ccc(-c2ccc(CCN)cc2)c(Oc2sc(-c3ccccc3)nc2C#N)c1` [compound 807, 5-[2-[4-(2-aminoethyl)phenyl]-5-cyanophenoxy]-2-phenyl-1,3-thiazole-4-carbonitrile] and `Cc1c(Oc2cc(C#N)ccc2-c2ncc(CCN)cn2)cnn1-c1ccccn1` [compound 830, 4-[5-(2-aminoethyl)pyrimidin-2-yl]-3-(5-methyl-1-pyridin-2-ylpyrazol-4-yl)oxybenzonitrile] fall in the same range of IC50: 10 to 1000 nM for the first, 10 to 1000 nM for the second.

`C[C@@H](N)c1cnc(-c2ccc(C#N)cc2Oc2cc(-c3ccccn3)nn2C)nc1` [compound 808, 4-[5-[(1R)-1-aminoethyl]pyrimidin-2-yl]-3-(2-methyl-5-pyridin-2-ylpyrazol-3-yl)oxybenzonitrile] and `C[C@H](N)c1cnc(-c2ccc(C#N)cc2Oc2cc(-c3ccccn3)nn2C)nc1` [compound 809, 4-[5-[(1S)-1-aminoethyl]pyrimidin-2-yl]-3-(2-methyl-5-pyridin-2-ylpyrazol-3-yl)oxybenzonitrile] cannot be ordered by IC50: less than 10 nM for the first, less than 10 nM for the second.

`Cn1nc(C(F)(F)F)cc1Oc1cc(C#N)ccc1-c1ccc(CN)cn1` [compound 810, 4-[5-(aminomethyl)pyridin-2-yl]-3-[2-methyl-5-(trifluoromethyl)pyrazol-3-yl]oxybenzonitrile] and `Cn1nc(C(F)F)cc1Oc1cc(C#N)ccc1-c1ccc(CN)cn1` [compound 828, 4-[5-(aminomethyl)pyridin-2-yl]-3-[5-(difluoromethyl)-2-methylpyrazol-3-yl]oxybenzonitrile] cannot be ordered by IC50: less than 10 nM for the first, less than 10 nM for the second.

`Cn1nc(C(F)(F)F)cc1Oc1cc(C#N)ccc1-c1ncc(CCN)cn1` [compound 812, 4-[5-(2-aminoethyl)pyrimidin-2-yl]-3-[2-methyl-5-(tritluoromethyl)pyrazol-3-yl]oxybenzonitrile] and `Cc1nn(CC(F)(F)F)cc1Oc1cc(C#N)ccc1-c1ncc(CCN)cn1` [compound 834, 4-[5-(2-aminoethyl)pyrimidin-2-yl]-3-[3-methyl-1-(2,2,2-trifluoroethyl)pyrazol-4-yl]oxybenzonitrile] cannot be ordered by IC50: less than 10 nM for the first, less than 10 nM for the second.

`CC(C)c1nc(Oc2cc(C#N)ccc2-c2ncc(CCN)cn2)n(C)n1` [compound 813, 4-[5-(2-aminoethyl)pyrimidin-2-yl]-3-[(2-methyl-5-propan-2-yl-1,2,4-triazol-3-yl)oxy]benzonitrile] and `CC(C)c1nc(Oc2cc(C#N)ccc2-c2ncc(CN)cn2)n(C)n1` [compound 814, 4-[5-(aminomethyl)pyrimidin-2-yl]-3-[(2-methyl-5-propan-2-yl-1,2,4-triazol-3-yl)oxy]benzonitrile] cannot be ordered by IC50: greater than 1000 nM for the first, greater than 1000 nM for the second.

`N#Cc1ccc(-c2ncc(CN)cn2)c(Oc2cc(N3CCCCC3)nnc2Cl)c1` [compound 815, 4-[5-(aminomethyl)pyrimidin-2-yl]-3-(3-chloro-6-piperidin-1-ylpyridazin-4-yl)oxybenzonitrile] and `Cc1nnc(N2CCCCC2)cc1Oc1cc(C#N)ccc1-c1ncc(CN)cn1` [compound 821, 4-[5-(aminomethyl)pyrimidin-2-yl]-3-(3-methyl-6-piperidin-1-ylpyridazin-4-yl)oxybenzonitrile] fall in the same range of IC50: 10 to 1000 nM for the first, 10 to 1000 nM for the second.

First: N#Cc1ccc(-c2ncc(CN)cn2)c(Oc2cc(Cl)nnc2N2CCCCC2)c1 [compound 816, 4-[5-(aminomethyl)pyrimidin-2-yl]-3-(6-chloro-3-piperidin-1-ylpyridazin-4-yl)oxybenzonitrile]
Second: Cc1nnc(N2CCCC2)cc1Oc1cc(C#N)ccc1-c1ncc(CN)cn1 [compound 824, 4-[5-(aminomethyl)pyrimidin-2-yl]-3-(3-methyl-6-pyrrolidin-1-ylpyridazin-4-yl)oxybenzonitrile]
The IC50 of the first is higher: greater than 1000 nM for the first, 10 to 1000 nM for the second.

`N#Cc1ccc(-c2ncc(CN)cn2)c(Oc2cnnc(-c3ccccn3)c2)c1` [compound 817, 4-[5-(aminomethyl)pyrimidin-2-yl]-3-(6-pyridin-2-ylpyridazin-4 yl)oxybenzonitrile] and `N#Cc1ccc(-c2ncc(CN)cn2)c(Oc2cnnc(-n3ccccc3=O)c2)c1` [compound 820, 4-[5-(aminomethyl)pyrimidin-2-yl]-3-[6-(2-oxopyridin-1-yl)pyridazin-4-yl]oxybenzonitrile] cannot be ordered by IC50: greater than 1000 nM for the first, greater than 1000 nM for the second.

`N#Cc1ccc(-c2ncc(CN)cn2)c(Oc2cnnc(OC3CCCC3)c2)c1` [compound 818, 4-[5-(aminomethyl)pyrimidin-2-yl]-3-(6-cyclopentyloxypyridazin-4-yl)oxybenzonitrile] and `CC(C)COc1cc(Oc2cc(C#N)ccc2-c2ncc(CN)cn2)cnn1` [compound 819, 4-[5-(aminomethyl)pyrimidin-2-yl]-3-[6-(2-methylpropoxy)pyridazin-4-yl]oxybenzonitrile] fall in the same range of IC50: 10 to 1000 nM for the first, 10 to 1000 nM for the second.

`CN(CCF)c1cc(Oc2cc(C#N)ccc2-c2ncc(CCN)cn2)n(C)n1` [compound 822, 4-[5-(2-aminoethyl)pyrimidin-2-yl]-3-[5-[2-fluoroethyl(methyl)amino]-2-methylpyrazol-3-yl]oxybenzonitrile] and `Cn1nc(N(CCF)CCF)cc1Oc1cc(C#N)ccc1-c1ncc(CCN)cn1` [compound 823, 4-[5-(2-aminoethyl)pyrimidin-2-yl]-3-[5-[bis(2-fluoroethyl)amino]-2-methylpyrazol-3-yl]oxybenzonitrile] cannot be ordered by IC50: less than 10 nM for the first, less than 10 nM for the second.

First: Cc1nnc(N2CCOCC2)cc1Oc1cc(C#N)ccc1-c1ncc(CN)cn1 [compound 825, 4-[5-(aminomethyl)pyrimidin-2-yl]-3-(3-methyl-6-morpholin-4-ylpyridazin-4-yl)oxybenzonitrile]
Second: Cc1nn(-c2ccccn2)cc1Oc1cc(C#N)ccc1-c1ncc(CN)cn1 [compound 833, 4-[5-(aminomethyl)pyrimidin-2-yl]-3-(3-methyl-1-pyridin-2-ylpyrazol-4 yl)oxybenzonitrile]
The IC50 of the first is higher: 10 to 1000 nM for the first, less than 10 nM for the second.

First: Cn1nc(C(F)F)cc1Oc1cc(C#N)ccc1-c1ncc(CN)cn1 [compound 829, 4-[5-(aminomethyl)pyrimidin-2-yl]-3-[5-(difluoromethyl)-2-methylpyrazol-3-yl]oxybenzonitrile]
Second: Cc1nn(CC(F)(F)F)cc1Oc1cc(C#N)ccc1-c1ncc(CN)cn1 [compound 835, 4-[5-(aminomethyl)pyrimidin-2-yl]-3-[3-methyl-1-(2,2,2-trifluoroethyl)pyrazol-4-yl]oxybenzonitrile]
The IC50 of the first is higher: 10 to 1000 nM for the first, less than 10 nM for the second.

First: Cc1c(Oc2cc(C#N)ccc2-c2ncc(CN)cn2)cnn1-c1ccccn1 [compound 831, 4-[5-(aminomethyl)pyrimidin-2-yl]-3-(5-methyl-1-pyridin-2-ylpyrazol-4-yl)oxybenzonitrile]
Second: Cc1nn(-c2ccccn2)cc1Oc1cc(C#N)ccc1-c1ncc(CCN)cn1 [compound 832, 4-[5-(2-aminoethyl)pyrimidin-2-yl]-3-(3-methyl-1-pyridin-2-ylpyrazol-4-yl)oxybenzonitrile]
The IC50 of the first is higher: greater than 1000 nM for the first, less than 10 nM for the second.

`Cc1c(Oc2cc(C#N)ccc2-c2ncc(CCN)cn2)cnn1CC(F)(F)F` [compound 836, 4-[5-(2-aminoethyl)pyrimidin-2-yl]-3-[5-methyl-1-(2,2,2-trifluoroethyl)pyrazol-4-yl]oxybenzonitrile] and `Cc1c(Oc2cc(C#N)ccc2-c2ncc(CN)cn2)cnn1CC(F)(F)F` [compound 837, 4-[5-(aminomethyl)pyrimidin-2-yl]-3-[5-methyl-1-(2,2,2-trifluoroethyl)pyrazol-4-yl]oxybenzonitrile] fall in the same range of IC50: 10 to 1000 nM for the first, 10 to 1000 nM for the second.

First: COCCCCN(C)c1cc(Oc2cc(C#N)ccc2-c2ncc(CCN)cn2)n(C)n1 [compound 838, 4-[5-(2-aminoethyl)pyrimidin-2-yl]-3-[5-[4-methoxybutyl(methyl)amino]-2-methylpyrazol-3-yl]oxybenzonitrile]
Second: CN(C)C(=O)CNC(C)(C)Cc1ccc(-c2ccc(C#N)cc2Oc2cc(-c3ccccn3)nn2C)nc1 [compound 839, 2-[[1-[6-[4-cyano-2-(2-methyl-5-pyridin-2-ylpyrazol-3-yl)oxyphenyl]pyridin-3-yl]-2-methylpropan-2-yl]amino]-N,N-dimethylacetamide]
The IC50 of the first is lower: 10 to 1000 nM for the first, greater than 1000 nM for the second.
